Values of other authors as cited in US20160074333A1, “Pharmaceutical compositions of tamsulosin or salts thereof” (WOCKHARDT LIMITED, priority 2013, published 2016).
Structures can show the parent of a compound that is named as a salt. Where two headings read alike, the source gives them in different places.

Compound: CCOc1ccccc1OCCN[C@H](C)Cc1ccc(OC)c(S(N)(=O)=O)c1 [Tamsulosin hydrochloride, (-)-(R)-5-[2-[[2-(o-Ethoxyphenoxy)ethyl]amino]propyl]-2-methoxybenzene sulfonamide, monohydrochloride]
- solubility (in ethanol): slightly soluble
- solubility (in ether): practically insoluble
- solubility (in glacial acetic acid): slightly soluble
- solubility (in methanol): sparingly soluble
- solubility (in water): sparingly soluble
